Source: patent US9707305B2, “Formulas for diagnosing and treating hormone-dependent cancers and cancers of the organs responsible for steroid hormone synthesis” (Commissariat à l'énergie atomique et aux énergies …, priority 2011, dated 2017)

Experiment: Biodistribution of the nano-emulsion of Example 1.1 (radioactivity and fluorescence per organ)
Type: in vivo
Description: In the following examples, the radioactivity was counted with the TRiCarb Counter (Ref: Packard, Liquid Scintillation Analyzers; Models 2200CA).
Fluobeam 700 (Fluoptics) is the apparatus with which the whole of the organs from the biodistribution were analyzed in fluorescence as well as the one with which the biodistribution kinetics of the nano-emulsions were established in vivo. This imaging system allows viewing of the fluorescence in spectral bands from 700 to 850 nm for a 650 nm excitation. The apparatus consists of an electric case containing the laser of class 3B, its power supply and an optical head containing the CCD camera.
The nano-emulsions of Example 1 were injected into FVB female and male mice. As a comparison, a mixture of three tracers ([3H]CHE, [14C]CO and DiD) (not formulated as a nano-emulsion) was injected in order to observe the distribution of the tracers in the absence of droplets being used as a distribution carrier.
Tables 6 to 14 provide the biodistribution results of each tracer ([3H]CHE, [14C]CO and DiD) expressed as a percentage of the dose injected per gram of tissue (or [3H]CHE and [14C]CO) or as fluorescence intensity (for DiD) depending on the organ of the mouse, 15 minutes (Table 6), 2 hours (Table 7), 4 hours (Table 8), 6 hours (Table 9), 16 hours (Table 10), 24 hours (Table 11), 72 hours (Table 12), 120 hours (Table 13) and 168 hours (Table 14), after injection into an FVB female mouse of the nano-emulsion of Example 1.1. (nano-emulsion according to the invention comprising the three tracers ([3H]CHE, [14C]CO and DiD).

[1] = 2 h after injection of nano-emulsion of Example 1.1, FVB female mouse
[2] = 4 h after injection of nano-emulsion of Example 1.1, FVB female mouse
[3] = 16 h (Table 9 head) after injection of nano-emulsion of Example 1.1, FVB female mouse
[4] = 24 h (Table 10 head) after injection of nano-emulsion of Example 1.1, FVB female mouse
[5] = 48 h (Table 11 head) after injection of nano-emulsion of Example 1.1, FVB female mouse
[6] = 72 h after injection of nano-emulsion of Example 1.1, FVB female mouse
[7] = 120 h after injection of nano-emulsion of Example 1.1, FVB female mouse

## CCCCCCCC/C=C\CCCCCCC[14C](=O)O[C@H]1CC[C@@]2(C)C(=CC[C@H]3[C@@H]4CC[C@H]([C@H](C)CCCC(C)C)[C@@]4(C)CC[C@@H]32)C1 [[14C]CO, cholesteryl oleate]
[1]
  biodistribution, Lung (MEAN): 4.42 % of injected dose per gram of
  biodistribution, Muscle (MEAN): 0.48 % of injected dose per gram of
  biodistribution, Ovary (MEAN): 22.72 % of injected dose per gram of
  biodistribution, Pancreas (MEAN): 1.68 % of injected dose per gram of
  biodistribution, Salivary glands (MEAN): 1.74 % of injected dose per gram of
  biodistribution, Spleen (MEAN): 2.87 % of injected dose per gram of
  biodistribution, Uterus (MEAN): 2.21 % of injected dose per gram of
[2]
  biodistribution, Adrenal glands (MEAN): 21.37 % of injected dose per gram of
  biodistribution, Brain (MEAN): 0.23 % of injected dose per gram of
  biodistribution, Fat (MEAN): 1.46 % of injected dose per gram of
  biodistribution, Heart (MEAN): 3.75 % of injected dose per gram of
  biodistribution, Intestine (MEAN): 1.80 % of injected dose per gram of
  biodistribution, Kidney (MEAN): 2.27 % of injected dose per gram of
  biodistribution, Liver (MEAN): 13.69 % of injected dose per gram of
  biodistribution, Lungs (MEAN): 3.09 % of injected dose per gram of
  biodistribution, Muscle (MEAN): 0.38 % of injected dose per gram of
  biodistribution, Ovary (MEAN): 25.14 % of injected dose per gram of
  biodistribution, Pancreas (MEAN): 1.17 % of injected dose per gram of
  biodistribution, Salivary glands (MEAN): 1.47 % of injected dose per gram of
  biodistribution, Spleen (MEAN): 1.97 % of injected dose per gram of
  biodistribution, Uterus (MEAN): 1.39 % of injected dose per gram of
[3]
  biodistribution, Adrenal glands (MEAN): 30.64 % of injected dose per gram of
  biodistribution, Brain (MEAN): 0.13 % of injected dose per gram of
  biodistribution, Fat (MEAN): 8.06 % of injected dose per gram of
  biodistribution, Heart (MEAN): 2.00 % of injected dose per gram of
  biodistribution, Intestine (MEAN): 2.53 % of injected dose per gram of
  biodistribution, Kidney (MEAN): 1.75 % of injected dose per gram of
  biodistribution, Liver (MEAN): 8.68 % of injected dose per gram of
  biodistribution, Lungs (MEAN): 2.80 % of injected dose per gram of
  biodistribution, Muscle (MEAN): 1.59 % of injected dose per gram of
  biodistribution, Ovary (MEAN): 21.45 % of injected dose per gram of
  biodistribution, Pancreas (MEAN): 1.19 % of injected dose per gram of
  biodistribution, Salivary glands (MEAN): 2.02 % of injected dose per gram of
  biodistribution, Spleen (MEAN): 1.89 % of injected dose per gram of
  biodistribution, Uterus (MEAN): 2.76 % of injected dose per gram of
[4]
  biodistribution, Adrenal glands (MEAN): 13.05 % of injected dose per gram of
  biodistribution, Brain (MEAN): 0.11 % of injected dose per gram of
  biodistribution, Fat (MEAN): 2.28 % of injected dose per gram of
  biodistribution, Heart (MEAN): 1.31 % of injected dose per gram of
  biodistribution, Intestine (MEAN): 1.22 % of injected dose per gram of
  biodistribution, Kidney (MEAN): 1.03 % of injected dose per gram of
  biodistribution, Liver (MEAN): 5.39 % of injected dose per gram of
  biodistribution, Lung (MEAN): 1.30 % of injected dose per gram of
  biodistribution, Muscle (MEAN): 1.01 % of injected dose per gram of
  biodistribution, Ovary (MEAN): 9.58 % of injected dose per gram of
  biodistribution, Pancreas (MEAN): 0.67 % of injected dose per gram of
  biodistribution, Salivary glands (MEAN): 1.76 % of injected dose per gram of
  biodistribution, Spleen (MEAN): 1.10 % of injected dose per gram of
  biodistribution, Uterus (MEAN): 0.96 % of injected dose per gram of
[5]
  biodistribution, Adrenal glands (MEAN): 10.83 % of injected dose per gram of
  biodistribution, Brain (MEAN): 0.11 % of injected dose per gram of
  biodistribution, Fat (MEAN): 3.46 % of injected dose per gram of
  biodistribution, Heart (MEAN): 0.87 % of injected dose per gram of
  biodistribution, Intestine (MEAN): 1.01 % of injected dose per gram of
  biodistribution, Kidney (MEAN): 0.77 % of injected dose per gram of
  biodistribution, Liver (MEAN): 1.53 % of injected dose per gram of
  biodistribution, Lungs (MEAN): 1.28 % of injected dose per gram of
  biodistribution, Muscle (MEAN): 0.34 % of injected dose per gram of
  biodistribution, Ovary (MEAN): 6.46 % of injected dose per gram of
  biodistribution, Pancreas (MEAN): 0.70 % of injected dose per gram of
  biodistribution, Salivary glands (MEAN): 1.20 % of injected dose per gram of
  biodistribution, Spleen (MEAN): 1.03 % of injected dose per gram of
  biodistribution, Uterus (MEAN): 1.24 % of injected dose per gram of
[6]
  biodistribution, Adrenal glands (MEAN): 9.36 % of injected dose per gram of
  biodistribution, Brain (MEAN): 0.10 % of injected dose per gram of
  biodistribution, Fat (MEAN): 5.01 % of injected dose per gram of
  biodistribution, Heart (MEAN): 0.64 % of injected dose per gram of
  biodistribution, Intestine (MEAN): 0.62 % of injected dose per gram of
  biodistribution, Kidney (MEAN): 0.66 % of injected dose per gram of
  biodistribution, Liver (MEAN): 0.75 % of injected dose per gram of
  biodistribution, Lungs (MEAN): 0.88 % of injected dose per gram of
  biodistribution, Muscle (MEAN): 0.28 % of injected dose per gram of
  biodistribution, Ovary (MEAN): 3.04 % of injected dose per gram of
  biodistribution, Pancreas (MEAN): 0.50 % of injected dose per gram of
  biodistribution, Salivary glands (MEAN): 1.16 % of injected dose per gram of
  biodistribution, Spleen (MEAN): 0.75 % of injected dose per gram of
  biodistribution, Uterus (MEAN): 1.00 % of injected dose per gram of
[7]
  biodistribution, Fat (MEAN): 2.42 % of injected dose per gram of
  biodistribution, Kidney (MEAN): 0.40 % of injected dose per gram of
